Experimental data published in patent EP4729529A1, “PREPARATION OF PEPTIDE INHIBITOR OF INTERLEUKIN-23 RECEPTOR AND USE THEREOF” (Xizang Haisco Pharmaceutical Co., Ltd., priority 2023, dated 2024).
Positions of bridges follow the written chain, without caps; N, C: chain ends. Non-standard residues stand in square brackets, D forms with d. Residues, ends and D or L forms follow the SMILES beside them. Phe(4-OC2H4NH2,2,3-(CH2)3) = NCCOc1ccc(C[C@H](N)C(=O)O)c2c1CCC2; Trp(7-Me) = Cc1cccc2c(C[C@H](N)C(=O)O)c[nH]c12; 2Nal = N[C@@H](Cc1ccc2ccccc2c1)C(=O)O; 3Pal = N[C@@H](Cc1cccnc1)C(=O)O; Pen = CC(C)(S)[C@H](N)C(=O)O; Thp = NC1(C(=O)O)CCOCC1; Sar = CNCC(=O)O

Assay: Test of stability in plasma, mouse
Format: in vitro ADME
Details: read-out: Residual rate% at 37°C for 6 h
Method: 5. Test of stability in plasma
In this experiment, plasmas of five species, including human, monkey, dog, rat, and mouse, were used to evaluate the stability in plasma of Compound 7.
A plasma sample was prepared at a concentration level of 1000 ng/mL, and dispensed into EP tubes at time points 0 h and 6 h. Acetonitrile solution containing an internal standard was added directly to the 0 h sample; and the 6 h sample was placed at 37°C for the corresponding time, and then added with an acetonitrile solution containing internal standard. The concentration of the test compound in the sample was measured by the LC-MS/MS method, and the residual rate was calculated from the ratio of the peak areas of the test compound to the internal standard in the time point sample and the 0 h sample.
Experimental results: At the concentration level of 1000 ng/mL under the test conditions, the residual rates of the test Compounds were shown in Table 6 below. Table 6. Residual rate% at 37°C for 6 h

For `CC(=O)NCCCC[C@@H]1NC(=O)[C@H](Cc2c[nH]c3c(C)cccc23)NC(=O)[C@H]([C@@H](C)O)NC(=O)[C@H](Cc2c[nH]cn2)NC(=O)[C@@H](NC(C)=O)C(C)(C)SSC(C)(C)[C@@H](C(=O)N[C@@H](Cc2ccc(OCCN)c3c2CCC3)C(=O)N[C@@H](Cc2ccc3ccccc3c2)C(=O)NC2(C(=O)N[C@@H](CCC(=O)O)C(=O)N[C@@H](CC(N)=O)C(=O)N[C@@H](Cc3cccnc3)C(=O)N(C)CC(N)=O)CCOCC2)NC1=O` [Compound 7] (Ac-[Pen]HT[Trp(7-Me)]K(Ac)[Pen][Phe(4-OC2H4NH2,2,3-(CH2)3)][2Nal][Thp]EN[3Pal][Sar]-NH2; disulfide 1-6), the remaining at 6 h, 1000 ng/mL was > 99%.
